This series deals with ATP-dependent translocase ABCB1 (Homo sapiens, UniProt P08183). The experiment in a line: TP_TRANSPORTER: inhibition of Rhodamine 123 efflux (R123: 5.2 micro;M) in MDR1 transfected L-5178 cells. The class given is functional, cell-based. The settings on record: mouse.

Our source for the Activity values is ChEMBL document CHEMBL2074237, “Biological activity of persimmon (Diospyros kaki) peel extracts” (Phytother Res, 2003).

Chain of ATP-dependent translocase ABCB1 (P08183 whole entry): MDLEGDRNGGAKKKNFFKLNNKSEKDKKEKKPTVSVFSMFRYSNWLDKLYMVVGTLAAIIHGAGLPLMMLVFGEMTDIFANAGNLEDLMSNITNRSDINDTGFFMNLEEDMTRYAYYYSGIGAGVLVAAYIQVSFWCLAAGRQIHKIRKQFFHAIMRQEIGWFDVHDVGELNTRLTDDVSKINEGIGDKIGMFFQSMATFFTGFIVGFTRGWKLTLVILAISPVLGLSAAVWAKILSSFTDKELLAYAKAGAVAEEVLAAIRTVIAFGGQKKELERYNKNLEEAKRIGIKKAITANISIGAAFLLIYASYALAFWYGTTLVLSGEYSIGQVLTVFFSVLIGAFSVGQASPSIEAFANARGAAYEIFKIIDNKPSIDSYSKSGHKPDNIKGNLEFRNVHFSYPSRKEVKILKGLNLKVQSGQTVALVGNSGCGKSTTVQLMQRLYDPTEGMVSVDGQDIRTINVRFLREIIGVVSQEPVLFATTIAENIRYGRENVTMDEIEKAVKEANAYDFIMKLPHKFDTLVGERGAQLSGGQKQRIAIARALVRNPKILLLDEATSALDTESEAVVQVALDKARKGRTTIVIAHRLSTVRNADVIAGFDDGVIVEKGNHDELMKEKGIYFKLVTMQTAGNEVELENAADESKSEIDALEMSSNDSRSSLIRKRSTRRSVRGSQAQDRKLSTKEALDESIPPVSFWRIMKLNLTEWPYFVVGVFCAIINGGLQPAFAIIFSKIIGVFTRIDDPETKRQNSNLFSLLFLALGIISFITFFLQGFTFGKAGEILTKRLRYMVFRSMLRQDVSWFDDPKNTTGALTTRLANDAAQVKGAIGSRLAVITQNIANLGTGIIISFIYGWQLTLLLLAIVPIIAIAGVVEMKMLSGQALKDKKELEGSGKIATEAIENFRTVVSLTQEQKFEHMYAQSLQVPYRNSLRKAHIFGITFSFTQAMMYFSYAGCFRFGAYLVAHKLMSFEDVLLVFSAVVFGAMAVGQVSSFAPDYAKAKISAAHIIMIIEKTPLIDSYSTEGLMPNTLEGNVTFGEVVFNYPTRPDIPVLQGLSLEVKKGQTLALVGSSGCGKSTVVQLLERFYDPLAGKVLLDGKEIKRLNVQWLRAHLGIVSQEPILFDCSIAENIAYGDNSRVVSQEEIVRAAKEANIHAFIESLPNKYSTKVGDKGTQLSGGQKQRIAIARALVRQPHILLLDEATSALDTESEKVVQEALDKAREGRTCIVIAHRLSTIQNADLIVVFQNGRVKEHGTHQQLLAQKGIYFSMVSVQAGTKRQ

With PERSIMMON PEEL EXTRACTS, the Activity entry is “inhibitor [+]”.
